In one test the test system is Molm-13 cells. The test is described as follows: Leukemia cell proliferation inhibition test (ATPlite), Molm-13. In kind it is cell-based. The following applies: Homo sapiens, MOLM-13, 72 h, Molm-13, 72 hours culture, ATPlite; GI50 per method; read-out: MOLM13 cell proliferation inhibition effect. The gist of the method: (§1)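 Molm-13 or MV4-11 cells at 10,000 cells/well in RPMI with 10% FBS and pen/strep were exposed to serially diluted compound for 72 h at 37 °C, 5% CO2. Total cellular ATP was read by luciferase luminescence. GI50 was taken relative to 0.1% DMSO control, from duplicates by sigmoid non-linear regression.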

Another test deals with MV4-11 cells. The test is described as follows: Leukemia cell proliferation inhibition test (ATPlite), MV4-11. In kind it is cell-based. Conditions: Homo sapiens, MV4-11, 72 h, MV4-11, 72 hours culture, ATPlite; GI50 per method; read-out: MV4-11 cell proliferation inhibition effect. In short, it runs like this: as §1
For orientation: In ATP-based viability assays light output follows the ATP content of the culture.

Test [1] deals with T1, human FLT3 protein (FLT3 (WT)) (Homo sapiens, UniProt P36888).
T1 construct: human FLT3 protein (intracellular region, 564 to 993 aa); GST; purchased Carna Biosciences; host or cells: baculovirus expression system
T1 sequence (P36888 564-993): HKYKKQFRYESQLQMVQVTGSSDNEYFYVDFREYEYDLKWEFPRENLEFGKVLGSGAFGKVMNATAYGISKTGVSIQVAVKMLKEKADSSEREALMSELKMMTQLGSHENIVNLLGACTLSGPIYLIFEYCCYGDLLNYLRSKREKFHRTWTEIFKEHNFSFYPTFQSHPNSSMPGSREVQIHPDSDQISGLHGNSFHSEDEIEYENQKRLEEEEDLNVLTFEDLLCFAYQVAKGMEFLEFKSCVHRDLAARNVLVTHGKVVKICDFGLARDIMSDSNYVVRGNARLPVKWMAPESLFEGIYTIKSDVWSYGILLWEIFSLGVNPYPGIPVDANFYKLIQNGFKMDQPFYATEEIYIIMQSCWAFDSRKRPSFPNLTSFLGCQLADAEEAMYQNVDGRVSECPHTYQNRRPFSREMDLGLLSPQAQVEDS
The test is described as follows: FLT3 inhibition test (FLT3 enzyme inhibition, time-resolved fluorescence of substrate peptide phosphorylation). The test is classed as biochemical. The following applies: GST-fused human FLT3 (564 to 993 aa), ATP 50 μM; read-out: FLT3 (WT) enzyme inhibition activity. The gist of the method:
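Wild-type human FLT3 (1.2 μg) pre-incubated with compound 15 min at 25° C in 100 mM HEPES pH 7.5, 10 mM MgCl2, 25 mM NaCl, 1 mM DTT. Reaction started with substrate peptide and ATP (final 50 μM), run 30 min at 25° C; phosphorylation read by time-resolved fluorescence.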

Where only a bound is given, the exact number is not on record here.

In the case of `CCCNc1nc(Nc2cc(C)ns2)ncc1C#CCCCNC(=O)[C@H](C)N(C)C(=O)/C=C/CN(C)C` [Compound 9-30, (S,E)-4-(Dimethylamino)-N-methyl-N-(1-((5-(2-((3-methylisothiazol-5-yl)amino)-4-(propylamino)pyrimidin-5-yl)-4-pentyn-1-yl)amino)-1-oxopropan-2-yl)-2-butenamide], the IC50 (in the test on Molm-13 cells; in the test with MV4-11 cells; in test [1]) was under 10 nM in each case.
For `COCCCNc1nc(Nc2ccnc(OC)c2)ncc1C#CCCCNC(=O)[C@H](C)N(C)C(=O)/C=C/CN(C)C` [Compound 9-31], the IC50 (in the test on Molm-13 cells; in the test on MV4-11 cells; in test [1]) was under 10 nM throughout.
Regarding `COCCCNc1nc(Nc2ccnc(OC)c2)ncc1C#CCCCNC(=O)[C@@H]1CCCN1C(=O)/C=C/CN(C)C` [Compound 9-32, (S,E)-1-(4-(Dimethylamino)-2-butenoyl)-N-(5-(4-((3-methoxypropyl)amino)-2-((methoxypyridin-4-yl)amino)pyrimidin-5-yl)-4-pentyn-1-yl)pyrrolidine-2-carboxamide], the IC50 (in the test with Molm-13 cells; with MV4-11 cells; in test [1]) was under 10 nM each time.
Consider `COCCCNc1nc(Nc2ccnc(OC)c2)ncc1C#CCCCNC(=O)[C@@H]1C[C@H](O)CN1C(=O)/C=C/CN(C)C` [Compound 9-33], for which the IC50 (in the test on Molm-13 cells; in the test on MV4-11 cells; in test [1]) was under 10 nM in each case.
For `COCCCNc1nc(Nc2ccnc(OC)c2)ncc1C#CCCCNC(=O)[C@@H]1C[C@H](F)CN1C(=O)/C=C/CN(C)C` [Compound 9-34, (2S,4S)-1-((E)-4-(Dimethylamino)-2-butenoyl)-4-fluoro-N-(5-(4-((3-methoxypropyl)amino)-2-((methoxypyridin-4-yl)amino)pyrimidin-5-yl)-4-pentyn-1-yl)pyrrolidine-2-carboxamide], the IC50 (with Molm-13 cells; in the test with MV4-11 cells; in test [1]) was under 10 nM each time.
For `CCCNc1nc(Nc2ccnc(OC)c2)ncc1C#CCCCNC(=O)[C@@H]1CCCN1C(=O)/C=C/CN(C)C` [Compound 9-35, (S,E)-1-(4-(Dimethylamino)-2-butenoyl)-N-(5-(2-((2-methoxypyridin-4-yl)amino)-4-(propylamino)pyrimidin-5-yl)-4-pentyn-1-yl)pyrrolidine-2-carboxamide], the IC50 (in the test with Molm-13 cells; in the test with MV4-11 cells; in test [1]) was under 10 nM each time.
Consider `CCCNc1nc(Nc2ccnc(OC)c2)ncc1C#CCCCNC(=O)[C@@H]1C[C@H](O)CN1C(=O)/C=C/CN(C)C` [Compound 9-36], for which the IC50 (with Molm-13 cells; in the test with MV4-11 cells; in test [1]) was under 10 nM throughout.
`CCCNc1nc(Nc2ccnc(OC)c2)ncc1C#CCCCNC(=O)[C@@H]1C[C@H](F)CN1C(=O)/C=C/CN(C)C` [Compound 9-37, (2S,4S)-1-((E)-4-(Dimethylamino)-2-butenoyl)-4-fluoro-N-(5-(2-((2-methoxypyridin-4-yl)amino)-4-(propylamino)pyrimidin-5-yl)-4-pentyn-1-yl)pyrrolidine-2-carboxamide]: the IC50 (in the test with Molm-13 cells; in the test with MV4-11 cells; in test [1]) was under 10 nM throughout.
In the case of `CCCNc1nc(Nc2ccnc(OC)c2)ncc1C#CCCCNC(=O)CN(C)C(=O)/C=C/CN(C)C` [Compound 9-38, (E)-4-(Dimethylamino)-N-(2-((5-(2-((2-methoxypyridin-4-yl)amino)-4-(propylamino)pyrimidin-5-yl)-4-pentyn-1-yl)amino)-2-oxoethyl)-N-methyl-2-butenamide], the IC50 (with Molm-13 cells; in the test on MV4-11 cells; in test [1]) was under 10 nM throughout.
Take `CNc1nc(Nc2ccnc(OC)c2)ncc1C#CCCCNC(=O)[C@H](C)N(C)C(=O)/C=C/CN(C)C` [Compound 9-39]: the IC50 (in the test on Molm-13 cells; in the test with MV4-11 cells; in test [1]) was under 10 nM in each case.
Take `CCCNc1nc(Nc2nnc(C)s2)ncc1C#CCCCNC(=O)[C@H](C)N(C)C(=O)/C=C/CN(C)C` [Compound 9-40]: the IC50 (in the test on Molm-13 cells; with MV4-11 cells; in test [1]) was 10 to 100 nM in each case.
Take `COCCCNc1nc(Nc2cccc(F)c2)ncc1C#CCCCNC(=O)[C@H](C)N(C)C(=O)/C=C/CN(C)C` [Compound 10-1, (S,E)-4-(dimethylamino)-N-(1-((5-(2-((3-fluorophenyl)amino)-4-((3-methoxypropyl)amino)pyrimidin-5-yl)-4-pentyn-1-yl)amino)-1-oxopropan-2-yl)-N-methyl-2-butenamide]: the values for the IC50 (with Molm-13 cells; in the test on MV4-11 cells; in test [1]) were 10 to 100 nM, under 10 nM and under 10 nM, respectively.
`C[C@@H](C(=O)NCCCC#Cc1cnc(Nc2ccc(C#N)cc2)nc1Nc1ccc(F)cc1)N(C)C(=O)/C=C/CN(C)C` [Compound 10-2, (S,E)-N-(1--((5-(2-((4-cyanophenyl)amino)-4-((4-fluorophenyl)amino)pyrimidin-5-yl)-4-pentyn-1-yl)amino)-1-oxopropan-2-yl)-4-(dimethylamino)-N-methyl-2-butenamide]: the IC50 (with Molm-13 cells; in the test with MV4-11 cells; in test [1]) was under 10 nM in each case.
`COc1ccc(Nc2nc(Nc3cccc(F)c3)ncc2C#CCCCNC(=O)[C@H](C)N(C)C(=O)/C=C/CN(C)C)cc1` [Compound 10-3, (S,E)-4-(Dimethylamino)-N-(1-((5-(2-((3-fluorophenyl)amino)-4-((4-methoxyphenyl)amino)pyrimidin-5-yl)-4-pentyn-1-yl)amino)-1-oxopropan-2-yl)-N-methyl-2-butenamide]: the IC50 (in the test with Molm-13 cells; in the test with MV4-11 cells; in test [1]) was under 10 nM in each case.
Turning to `C[C@@H](C(=O)NCCCC#Cc1cnc(Nc2cccc(F)c2)nc1NCCCN(C)C)N(C)C(=O)/C=C/CN(C)C` [Compound 10-4], the IC50 (with Molm-13 cells; in the test on MV4-11 cells; in test [1]) was under 10 nM throughout.
For `C[C@@H](C(=O)NCCCC#Cc1cnc(Nc2cccc(F)c2)nc1N1CCOCC1)N(C)C(=O)/C=C/CN(C)C` [Compound 10-5, (S,E)-4-(Dimethylamino)-N-(1-((5-(2-((3-fluorophenyl)amino)-4-morpholinopyrimidin-5-yl)-4-pentyn-1-yl)amino)-1-oxopropan-2-yl)-N-methyl-2-butenamide], the IC50 (in the test with Molm-13 cells; in the test with MV4-11 cells; in test [1]) was under 10 nM in each case.
As for `C[C@@H](C(=O)NCCCC#Cc1cnc(Nc2cccc(F)c2)nc1NCCN1CCOCC1)N(C)C(=O)/C=C/CN(C)C` [Compound 10-6], the IC50 (with Molm-13 cells; with MV4-11 cells; in test [1]) was under 10 nM in each case.
Turning to `C[C@@H](C(=O)NCCCC#Cc1cnc(Nc2cccc(F)c2)nc1NCC1CCOCC1)N(C)C(=O)/C=C/CN(C)C` [Compound 10-7], the IC50 (in the test with Molm-13 cells; in the test on MV4-11 cells; in test [1]) was under 10 nM throughout.
In the case of `C[C@@H](C(=O)NCCCC#Cc1cnc(Nc2cccc(F)c2)nc1NCCC#N)N(C)C(=O)/C=C/CN(C)C` [Compound 10-8], the IC50 was 10 to 100 nM in the test with Molm-13 cells, under 10 nM in the test with MV4-11 cells and under 10 nM in test [1].
For `C[C@@H](C(=O)NCCCC#Cc1cnc(Nc2cccc(F)c2)nc1NCCc1cccs1)N(C)C(=O)/C=C/CN(C)C` [Compound 10-9], the IC50 is 10 to 100 nM in the test with Molm-13 cells, 10 to 100 nM in the test on MV4-11 cells and under 10 nM in test [1].
For `CCCN(CCC)c1nc(Nc2cccc(F)c2)ncc1C#CCCCNC(=O)[C@H](C)N(C)C(=O)/C=C/CN(C)C` [Compound 10-10], the IC50 (with Molm-13 cells; in the test on MV4-11 cells; in test [1]) was under 10 nM in each case.
Turning to `Cc1ccc(Nc2nc(Nc3cccc(F)c3)ncc2C#CCCCNC(=O)[C@H](C)N(C)C(=O)/C=C/CN(C)C)cc1` [Compound 10-11], the IC50 with Molm-13 cells was 10 to 100 nM; in the test with MV4-11 cells, under 10 nM; in test [1], under 10 nM.
For `CC(C)c1ccc(Nc2nc(Nc3cccc(F)c3)ncc2C#CCCCNC(=O)[C@H](C)N(C)C(=O)/C=C/CN(C)C)cc1` [Compound 10-12], the IC50 in the test on Molm-13 cells was 10 to 100 nM; with MV4-11 cells, under 10 nM; in test [1], under 10 nM.
For `CC(C)CCNc1nc(Nc2ccc(C#N)cc2)ncc1C#CCCCNC(=O)[C@H](C)N(C)C(=O)/C=C/CN(C)C` [Compound 10-13], the IC50 (in the test with Molm-13 cells; in the test on MV4-11 cells; in test [1]) was under 10 nM in each case.
For `C[C@@H](C(=O)NCCCC#Cc1cnc(Nc2ccc(C#N)cc2)nc1N1CCC1)N(C)C(=O)/C=C/CN(C)C` [Compound 10-14], the IC50 (in the test on Molm-13 cells; with MV4-11 cells; in test [1]) was under 10 nM each time.

The values are drawn from patent publication US9145415B2, “Nitrogen-containing heterocyclic compound or salt thereof” (FUJIFILM Corporation, priority 2012, dated 2015).
